These results are taken from US6011174A, “Cyclic amic acid derivatives” (Banyu Pharmaceutical Co., Ltd., priority 1996, dated 2000).

In assay [1] the target is T1, protein-farnesyl transferase (PFT) (Rattus norvegicus, UniProt Q02293+Q04631).
T1 construct: soluble fraction of rat's brain; from tissue; host or cells: rat brain, soluble fraction, 30%-50% ammonium sulfate cut, Q-Sepharose fraction
The assay is described as follows: Inhibitory activities against protein-farnesyl transferase (PFT). The following applies: PFT from rat brain; prenyl acceptor H-ras protein or biotin-added Lys-Thr-Ser-Cys-Val-Ile-Met; 37° C., 20 minutes; read-out: 50% inhibitory concentrations against PFT activities, IC50. It counts as biochemical.

For assay [2], the system named is farnesyl-modification of Ras protein in NIH3T3 cells transformed by activated ras gene. The assay is described as follows: Inhibitory activities against farnesyl-modification of Ras protein in NIH3T3 cells transformed by activated ras gene. It counts as cell-based. The following applies: Mus musculus, 24 hours, read-out: 50% inhibitory concentrations against farnesyl-modification of Ras protein, IC50. The method, then:
Using the compounds of the present invention, inhibitory activities against farnesyl-modification of Ras protein in NIH3T3 cells transformed by activated ras gene, were measured.
The NIH3T3 cells transformed by activated ras gene, were seeded on a culture plate and cultured for 3 days. Then, a compound of the preset invention in a predetermined concentration was added to the culture. In accordance with the method disclosed in J. Biol. Chem., vol. […] The cell extract was subjected to SDS polyacrylamide gel electrophoresis to separate farnesyl-modified Ras protein and non-farnesyl-modified Ras protein. The protein on the gel was transferred onto a nitrocellulose membrane, and an anti-Ras protein antibody was reacted as a probe (primary antibody reaction). An anti-primary antibody, a peroxidase inclusion (secondary antibody), was reacted, and then Ras protein was detected by a chemical fluorescence enhancing kit. The proportion of non-farnesyl-modified Ras protein was quantified by a densitometer and taken as the inhibitory activity.

For assay [3], the system named is NIH3T3 Cells Transformed by Activated Ras Gene (NIH/ras). The assay is described as follows: Antitumor effect against NIH/ras cells in nude mice, intraperitoneal (tumor weight). The following applies: for Growth inhibition (tumor weight): once a day days 1-6, day 7; for Weight of tumor, Average ± standard deviation: once a day days 1-6, weighed day 7. The format is in vivo, nude mouse. An excerpt:
Pharmacological Test Example 3 (Therapeutic Effects to NIH3T3 Cells Transformed by Activated Ras Gene (NIH/ras))
(§1) ^1) Tumor inoculation: 10^6 cells were inoculated subcutaneously
(§2) to a female nude mouse.
^2) Dose: Each dose was intraperitonealy administered once a day from
the first day to the sixth day after the inoculation of the cells,.
^3) Weight of tumor: On the seventh day after inoculation of the
cells, the tumors were weighed.
^4) Growth inhibition: (1(average weight of tumor of the treated
group/average weight of tumor of the control group)) × 100
* and **: Statistical analyses by utest are 5% and 1%, respectively.

Assay [4] shares this test system. The assay is described as follows: Antitumor effect against NIH/ras cells in nude mice, subcutaneous (tumor volume). The following applies: for Growth inhibition (tumor volume): once a day days 1-10, day 8; for Volume of tumor, Average ± standard deviation: once a day days 1-10, measured day 8, ** 1% (u test). It counts as in vivo, nude mouse. Here is the method: as §1, §2
^2 Dose: Each dose was subcutaneously administered once a day from th
first day to the tenth day after the inoculation of the cells.
^3) Volume of tumor: On the eighth day after inoculation of the cells
volume of the tumors were measured.
^4) Growth inhibition: (1(average volume of tumor of the treated
group/average volume of tumor of the control group)) × 100

The mark [5] stands for this setting: 10 mg/kg/injection subcutaneous.
[6] abbreviates: 20 mg/kg/injection subcutaneous.
Setting [7] is: 40 mg/kg/injection subcutaneous.

The structures appear in SMILES notation.

As to `C[C@H]([C@H](CCc1ccccc1)c1ccc(Oc2ccccc2)cc1)N(CC(=O)O)C(=O)[C@@H]1OC(C(=O)O)(C(=O)O)O[C@@H]1C(=O)O` (relative stereo) [Example 23 (4R*, 5S*)-isomer, (4R*,5S*)-4-[N-(carboxymethyl)-N-{(1R,2R)-1-methyl-2-(4-phenoxyphenyl)-4-phenylbutyl}carbamoyl]-1,3-dioxolane-2,2,5-tricarboxylic acid], the IC50 in assay [1] was found to be 0.085 nM; in assay [2] it was 2100 nM.

Turning to `C[C@H]([C@H](CCc1ccccc1)c1ccc(Oc2ccccc2)cc1)N(CC(=O)O)C(=O)[C@H]1OC(C(=O)O)(C(=O)O)O[C@H]1C(=O)O` (relative stereo) [Example 23 (4S*, 5R*)-isomer, (4S*,5R*)-4-[N-(carboxymethyl)-N-{(1R,2R)-1-methyl-2-(4-phenoxyphenyl)-4-phenylbutyl}carbamoyl]-1,3-dioxolane-2,2,5-tricarboxylic acid], the IC50 in assay [1] came to 0.075 nM; in assay [2], 2000 nM.

With `COc1cc(C(CCc2ccccc2)C(C)N(CC(=O)O)C(=O)[C@@H]2COC(C(=O)O)(C(=O)O)O2)ccc1Oc1ccccc1` (single isomer, unassigned) [Example 31], the IC50 in assay [1] is 0.22 nM; in assay [2], 550 nM.

`CC(C(CCc1ccccc1)c1ccc(Oc2ccccc2)c(O)c1)N(CC(=O)O)C(=O)[C@@H]1COC(C(=O)O)(C(=O)O)O1` (single isomer, unassigned) [Example 32]: the results for the IC50 in assay [1] and in assay [2] were 0.2 nM and 590 nM, respectively.

Take `C[C@H]([C@H](CCc1ccccc1)c1ccc(Oc2ccccc2)cc1)N(CC(=O)O)C(=O)[C@@H]1COC(C(=O)O)(C(=O)O)O1` [Example 9, (4S)-4-[N-(carboxymethyl)-N-{(1R,2R)-1-methyl-2-(4-phenoxyphenyl)-4-phenylbutyl}carbamoyl]-1,3-dioxolane-2,2-dicarboxylic acid]: the IC50 in assay [1] was 0.16 nM; in assay [2], 240 nM. Further, the “Growth inhibition (tumor weight)” value is 67% in assay [3] (20 mg/kg/injection intraperitoneal), 80% in assay [3] (40 mg/kg/injection intraperitoneal), 90% in assay [3] (80 mg/kg/injection intraperitoneal) and 98% in assay [3] (160 mg/kg/injection intraperitoneal). The “Weight of tumor, Average ± standard deviation” value in assay [3] (20 mg/kg/injection intraperitoneal, * 5% (u test)) is recorded as 0.024 ± 0.018 g; in assay [3] (40 mg/kg/injection intraperitoneal, ** 1% (u test)) it was 0.015 ± 0.013 g; in assay [3] (80 mg/kg/injection intraperitoneal, ** 1% (u test)), 0.008 ± 0.006 g; in assay [3] (160 mg/kg/injection intraperitoneal, ** 1% (u test)), 0.002 ± 0.001 g.

Regarding `C[C@H]([C@H](CCc1ccccc1)c1ccc(Oc2ccccc2)cc1)N(CC(=O)O)C(=O)[C@@H]1OC(C(=O)O)(C(=O)O)O[C@H]1C(=O)O` [Example 21, (4R,5R)-4-[N-(carboxymethyl)-N-{(1R,2R)-1-methyl-2-(4-phenoxyphenyl)-4-phenylbutyl}carbamoyl]-1,3-dioxolane-2,2,5-tricarboxylic acid], the results for the IC50 in assay [1] and in assay [2] were 0.098 nM and 2100 nM, respectively.

In the case of `C[C@H]([C@H](CCc1ccccc1)c1ccc(Oc2ccccc2)cc1)N(CC(=O)O)C(=O)[C@H]1OC(C(=O)O)(C(=O)O)O[C@@H]1C(=O)O` [Example 22, (4S,5S)-4-[N-(carboxymethyl)-N-{(1R,2R)-1-methyl-2-(4-phenoxyphenyl)-4-phenylbutyl}carbamoyl]-1,3-dioxolane-2,2,5-tricarboxylic acid], the “Growth inhibition (tumor volume)” value in assay [4] (setting [5]) is given as 75%; in assay [4] (setting [6]), 92%; in assay [4] (setting [7]), 99%. Further, the “Volume of tumor, Average ± standard deviation” value is on record as 0.164 ± 0.073 cm^3 in assay [4] (setting [5]), 0.052 ± 0.030 cm^3 in assay [4] (setting [6]) and 0.010 ± 0.009 cm^3 in assay [4] (setting [7]). The results for the IC50 in assay [1] and in assay [2] were 0.095 nM and 1900 nM, respectively.
